The record followed here is US20230116703A1, “NOVEL ERGOLINES AND METHODS OF TREATING MOOD DISORDERS” (priority 2021, published 2023).

Structures are written as SMILES. Read-outs that look alike come from different tables or passages of the source. Some results are limits rather than exact numbers.

The target in one experiment is T1, 5-HT2A receptor (Homo sapiens, UniProt P28223).
T1 construct: host or cells: HEK293
Kind of experiment: PathHunter beta-arrestin recruitment assay at 5-HT2A. In kind it is cell-based. The following applies: for agonist type in arrestin recruitment assay (in words): 5-HT2A beta-arrestin. The method in brief:
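Cells co-express PK-tagged 5-HT2A and beta-arrestin fused to a beta-galactosidase deletion mutant, so arrestin recruitment restores enzyme activity, read by chemiluminescence; cells were held at 37° C before testing. Agonist % activity = RLU over vehicle, relative to the maximal control ligand.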

The target in the next experiment is T2, human 5-HT2C receptor (Homo sapiens, UniProt P28335).
T2 sequence (P28335 33-458): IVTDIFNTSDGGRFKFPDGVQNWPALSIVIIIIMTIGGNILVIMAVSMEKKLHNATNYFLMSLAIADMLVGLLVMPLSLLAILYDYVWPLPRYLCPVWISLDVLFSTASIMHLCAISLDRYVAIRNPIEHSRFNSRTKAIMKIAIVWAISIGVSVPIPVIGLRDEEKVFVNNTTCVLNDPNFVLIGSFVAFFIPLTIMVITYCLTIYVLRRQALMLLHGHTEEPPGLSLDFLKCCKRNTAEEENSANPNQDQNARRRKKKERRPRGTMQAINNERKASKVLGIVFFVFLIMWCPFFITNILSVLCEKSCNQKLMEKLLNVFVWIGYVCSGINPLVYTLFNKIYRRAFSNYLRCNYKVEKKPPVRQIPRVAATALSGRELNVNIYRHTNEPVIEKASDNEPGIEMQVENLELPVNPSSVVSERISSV
Briefly: cell-based. The following applies: Ca^2+ flux, agonist.

Another experiment addresses T3, Alpha1A receptor (Homo sapiens, UniProt P35348).
T3 sequence (P35348 1-466): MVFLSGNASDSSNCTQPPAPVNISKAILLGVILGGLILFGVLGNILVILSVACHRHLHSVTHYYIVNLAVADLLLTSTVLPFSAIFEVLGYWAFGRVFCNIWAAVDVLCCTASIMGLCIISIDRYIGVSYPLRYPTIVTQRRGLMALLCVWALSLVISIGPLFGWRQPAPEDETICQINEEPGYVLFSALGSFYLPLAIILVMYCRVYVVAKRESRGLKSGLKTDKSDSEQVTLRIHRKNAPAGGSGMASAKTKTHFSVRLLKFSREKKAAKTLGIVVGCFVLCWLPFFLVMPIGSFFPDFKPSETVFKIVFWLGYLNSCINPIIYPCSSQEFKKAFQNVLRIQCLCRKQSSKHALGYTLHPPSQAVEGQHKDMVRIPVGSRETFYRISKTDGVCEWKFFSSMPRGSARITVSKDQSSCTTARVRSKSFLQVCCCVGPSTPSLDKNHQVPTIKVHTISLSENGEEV
Kind of experiment: FLIPR Ca^2+ flux agonist assay at Alpha1A. In kind it is cell-based. As to the method:
Disclosed compounds were tested for agonist activity at several adrenergic (Alpha1A and Alpha2A) and dopamine (D1 and D2) receptor subtypes using Ca^2+ flux functional assays, with the results summarized in Table 6. Selectivity for the 5-HT2A receptor over these other targets varied depending on the specific target and compound.
(§1) Functional Assays at Adrenergic and Dopamine Receptors. Agonist activity at Alpha1A, Alpha2A, D1, and D2 receptors was determined using a FLIPR Ca^2+ flux assay at WuXi AppTec (Hong Kong) Limited according to their standard protocols. Briefly, stably transfected cells expressing the receptor of interest were grown and plated in a 384 well plate and incubated at 37° C. and 5% CO2 overnight. A solution of 250 mM probenecid in 1 mL FLIPR assay buffer was prepared fresh. This was combined with a fluorescent dye (Fluo-4 Direct™) to make a final assay concentration of 2.5 mM. Compounds were diluted 1:3.16 for 10 points and 750 nL was added to a 384 well compound plate using ECHO along with 30 μL assay buffer. The fluorescent dye was then added to the assay plate along with assay buffer to a final volume of 40 μL. The cell plate was incubated for 50 min at 37° C. and 5% CO2 and placed into the FLIPR Tetra along with the compound plate. 10 μL of references and compounds were then transferred from the compound plate into the cell plate and the fluorescent signal was read.

The next experiment has as its target T4, Alpha2A receptor (Homo sapiens, UniProt P08913).
T4 sequence (P08913 1-465): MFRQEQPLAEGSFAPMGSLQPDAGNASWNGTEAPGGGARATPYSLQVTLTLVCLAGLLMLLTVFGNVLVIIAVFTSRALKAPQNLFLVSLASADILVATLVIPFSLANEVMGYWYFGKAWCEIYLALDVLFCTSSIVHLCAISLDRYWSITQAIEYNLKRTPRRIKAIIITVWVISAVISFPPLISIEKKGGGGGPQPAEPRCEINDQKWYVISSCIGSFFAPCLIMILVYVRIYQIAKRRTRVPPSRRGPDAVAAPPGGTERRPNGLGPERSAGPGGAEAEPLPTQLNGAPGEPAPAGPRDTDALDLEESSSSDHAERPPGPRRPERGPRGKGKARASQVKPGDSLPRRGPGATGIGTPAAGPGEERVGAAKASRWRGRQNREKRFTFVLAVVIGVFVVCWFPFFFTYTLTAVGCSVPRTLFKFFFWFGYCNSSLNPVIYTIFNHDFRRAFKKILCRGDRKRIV
Briefly: FLIPR Ca^2+ flux agonist assay at Alpha2A. In kind it is cell-based. Here is the method: as §1, with “Compounds were diluted 1:3.16 for 10 points and 750 nL was added to a 384 well compound plate using ECHO along with 30 μL assay buffer.” left out

Where [1] appears, read: beta-arrestin recruitment, read-out: 5-HT2A Arrestin EC50.
The mark [2] stands for this setting: Ca^2+ flux, agonist, read-out: Alpha1A EC50.
The mark [3] stands for this setting: Ca^2+ flux, agonist, read-out: Alpha 2A EC50.

T1 sequence (P28223 whole entry): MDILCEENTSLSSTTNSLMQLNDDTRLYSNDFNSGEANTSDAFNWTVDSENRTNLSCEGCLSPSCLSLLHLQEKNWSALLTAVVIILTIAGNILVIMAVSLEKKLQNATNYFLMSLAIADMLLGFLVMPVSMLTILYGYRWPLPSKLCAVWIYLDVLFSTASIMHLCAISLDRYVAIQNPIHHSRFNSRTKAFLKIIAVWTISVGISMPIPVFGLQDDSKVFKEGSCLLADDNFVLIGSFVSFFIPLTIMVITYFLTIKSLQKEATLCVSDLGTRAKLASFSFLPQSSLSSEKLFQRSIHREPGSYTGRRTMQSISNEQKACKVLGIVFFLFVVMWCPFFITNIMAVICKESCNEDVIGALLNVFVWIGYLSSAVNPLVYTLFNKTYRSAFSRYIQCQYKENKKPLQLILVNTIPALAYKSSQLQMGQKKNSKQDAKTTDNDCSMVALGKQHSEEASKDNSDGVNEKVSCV

Broadly, the EC50 is the concentration that produces a half-maximal response. In the case of `CCCN1C[C@H](C(=O)N(CC)CC)C=C2c3cccc4[nH]cc(c34)C[C@H]21` [Compound 1, (6aR,9R)—N,N-diethyl-7-propyl-4,6,6a,7,8,9-hexahydroindolo[4,3-fg]quinoline-9-carboxamide], the EC50 on 5-HT2A receptor amounted to 2.01 nM; at human 5-HT2C receptor, 11.9 nM; on Alpha1A receptor, 8.82 nM; on Alpha2A receptor, 42.2 nM. For the same compound, the “agonist type in arrestin recruitment assay (in words)” value (“agonist type” below) on 5-HT2A receptor was “full agonists”.

For the compound `CCN(CC)C(=O)[C@@H]1C=C2c3cccc4[nH]cc(c34)C[C@H]2N(CCCF)C1` [Compound 2, (6aR,9R)—N,N-diethyl-7-(3-fluoropropyl)-4,6,6a,7,8,9-hexahydroindolo[4,3-fg]quinoline-9-carboxamide], the EC50 turned out to be 2.27 nM on 5-HT2A receptor, 4.35 nM at human 5-HT2C receptor, 237 nM at Alpha1A receptor and 1000 nM on Alpha2A receptor. For the same compound, the “agonist type” value on 5-HT2A receptor was “full agonists”.

Turning to `CCCN1C[C@H](C(=O)N[C@H](C)CC)C=C2c3cccc4[nH]cc(c34)C[C@H]21` [Compound 3, (6aR,9R)—N—((R)-sec-butyl)-7-propyl-4,6,6a,7,8,9-hexahydroindolo[4,3-fg]quinoline-9-carboxamide], the EC50 on 5-HT2A receptor was < 0.509 nM; at human 5-HT2C receptor, 0.822 nM; on Alpha1A receptor, 42.3 nM; at Alpha2A receptor it was 3640 nM. The “agonist type” value at 5-HT2A receptor is given as “full agonists”.

Regarding `CCCN1C[C@H](C(=O)N2[C@@H](C)C[C@@H]2C)C=C2c3cccc4[nH]cc(c34)C[C@H]21` [Compound 4, ((2S,4S)-2,4-dimethylazetidin-1-yl)((6aR,9R)-7-propyl-4,6,6a,7,8,9-hexahydroindolo[4,3-fg]quinolin-9-yl)methanone], the EC50 on 5-HT2A receptor was found to be 1.44 nM; on human 5-HT2C receptor, 5.6 nM; on Alpha1A receptor, 116 nM; at Alpha2A receptor it was 1080 nM. Moreover, the “agonist type” value on 5-HT2A receptor is reported as “full agonists”.

`CCCN1C[C@H](C(=O)NC(CC)CC)C=C2c3cccc4[nH]cc(c34)C[C@H]21` [Compound 6, (6aR,9R)—N-(pentan-3-yl)-7-propyl-4,6,6a,7,8,9-hexahydroindolo[4,3-fg]quinoline-9-carboxamide]: on 5-HT2A receptor, the EC50 is 1.91 nM and the “agonist type” value is “full agonists”. This compound also displayed an EC50 on human 5-HT2C receptor of 6.18 nM.

Consider `CCN(CC)C(=O)[C@@H]1C=C2c3cccc4[nH]cc(c34)C[C@H]2N(Cc2ccccc2OC)C1` [Compound 10, (6aR,9R)—N,N-diethyl-7-(2-methoxybenzyl)-4,6,6a,7,8,9-hexahydroindolo[4,3-fg]quinoline-9-carboxamide], for which the “agonist type” value at 5-HT2A receptor is reported as “partial agonists”. In addition, the concentration giving a half-maximal response (EC50) on 5-HT2A receptor (setting [1]) was 8.47 nM; at human 5-HT2C receptor it was > 10000 nM; at Alpha1A receptor (setting [2]), > 31600 nM; at Alpha2A receptor (setting [3]) it was > 31600 nM.

For the compound `CCN(CC)C(=O)[C@@H]1C=C2c3cccc4[nH]cc(c34)C[C@H]2N(CCc2ccccc2OC)C1` [Compound 11, (6aR,9R)—N,N-diethyl-7-(2-methoxyphenethyl)-4,6,6a,7,8,9-hexahydroindolo[4,3-fg]quinoline-9-carboxamide], the “agonist type” value at 5-HT2A receptor is reported as “partial agonists”. For the same compound, the EC50 was 1.27 nM at 5-HT2A receptor (setting [1]), 74.5 nM on human 5-HT2C receptor, > 31600 nM on Alpha1A receptor (setting [2]) and > 31600 nM at Alpha2A receptor (setting [3]).
